Results on 27 molecules are retold here after patent US8524700B2, “Tetrahydroisoquinoline sulfonamide derivatives, the preparation thereof, and the use of the same in therapeutics” (Sanofi, priority 2004, dated 2013).

Structures can show the parent of a compound that is named as a salt.

Chain of native histamine H3 receptor (Q9QYN8 1-397 isoform Q9QYN8-3): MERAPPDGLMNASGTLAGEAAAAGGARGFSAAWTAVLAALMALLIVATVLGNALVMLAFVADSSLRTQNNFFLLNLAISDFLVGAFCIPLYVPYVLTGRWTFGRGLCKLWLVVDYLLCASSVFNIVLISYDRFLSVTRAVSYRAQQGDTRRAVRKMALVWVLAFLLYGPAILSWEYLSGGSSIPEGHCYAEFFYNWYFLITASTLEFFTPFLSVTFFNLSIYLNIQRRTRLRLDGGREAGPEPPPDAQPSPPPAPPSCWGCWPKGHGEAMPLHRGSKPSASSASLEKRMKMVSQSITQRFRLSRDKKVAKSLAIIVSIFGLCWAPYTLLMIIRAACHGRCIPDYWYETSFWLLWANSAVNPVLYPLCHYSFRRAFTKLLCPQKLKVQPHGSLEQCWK

For the first series, the target named is T1, human histamine H3 receptor transfected into CHO cells (Homo sapiens, UniProt Q9Y5N1).
T1 construct: expressed in transfected cells; host or cells: CHO cells
T1 sequence (Q9Y5N1 whole entry): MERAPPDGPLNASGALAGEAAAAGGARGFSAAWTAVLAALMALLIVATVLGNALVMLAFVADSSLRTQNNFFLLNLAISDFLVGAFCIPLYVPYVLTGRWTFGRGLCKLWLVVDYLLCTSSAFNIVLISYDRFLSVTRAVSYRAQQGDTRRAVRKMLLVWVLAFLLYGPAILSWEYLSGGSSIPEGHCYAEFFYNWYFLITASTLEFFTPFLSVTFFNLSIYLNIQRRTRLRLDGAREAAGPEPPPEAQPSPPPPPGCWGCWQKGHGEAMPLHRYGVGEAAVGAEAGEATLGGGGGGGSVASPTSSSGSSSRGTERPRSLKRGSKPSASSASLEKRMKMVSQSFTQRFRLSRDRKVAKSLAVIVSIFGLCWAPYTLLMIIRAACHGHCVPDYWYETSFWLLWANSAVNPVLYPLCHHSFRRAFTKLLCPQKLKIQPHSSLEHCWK
The series is described as follows: cAMP formation assay, inhibition of R-α-methylhistamine agonism, CHO cells (EIA kit). Format: cell-based. Particulars: human H3 in CHO cells, EIA kit (Amersham). The protocol: The compounds of the invention of formula I were also subjected to a cAMP formation assay, on the human histamine H3 receptor transfected into CHO cells, by inhibition of the agonism caused by the specific binding of R-α-methylhistamine to this receptor, according to the methods described by T. W. Lovenberg et al., in J. Pharmacol. Exp. Ther. 293, 771-778 (2000).
By way of example, compound 15, included in Table 1, has an IC50<10 nM, using an EIA kit (Amersham) to measure cAMP formation, on the human histamine H3 receptor transfected into CHO cells, by inhibition of the agonism caused by the specific binding of R-α-methylhistamine to this receptor.
As to `CN1CCCC1CCNS(=O)(=O)c1ccc2c(c1)CN(CC1CCCCC1)CC2` (racemic) [compound 15, (+/−)-2-(cyclohexylmethyl)-N-[2-(1-methylpyrrolidin-2-yl)ethyl]-1,2,3,4-tetrahydroisoquinoline-7-sulfonamide], the IC50 is less than 10 nM.

Another series has as its target native histamine H3 receptor (Rattus norvegicus, UniProt Q9QYN8). The series is described as follows: in vitro affinity assay on native histamine H3 receptor, [3H]-N-α-methylhistamine binding, adult rat brain membrane preparation. Particulars: rat brain membranes, read-out: Ki with respect to H3 receptors. The source says:
More particularly, the compounds of the invention are histamine H3-receptor antagonists. H3 receptors are known to those skilled in the art and their advantage in therapeutics has been described in the literature (“Histamine H3 receptor antagonists” Exp. Opinion Ther. Patents (2000) 10 (7):1045-1055). Thus, the compounds of the invention of formula I were subjected to an in vitro affinity assay on the native histamine H3 receptor in an adult rat brain membrane preparation, by specific binding of [^3H]-N-α-methylhistamine to this receptor, according to the methods described by A. Korte et al., in Biochem. Biophys. Res. Commun. 168, 979-986 (1990) and by R. E. West Jr. et al., in Mol. Pharmacol. 38, 610-613 (1990).
For `CN1CCCC1CCNS(=O)(=O)c1ccc2c(c1)CN(CC1CCCCC1)CC2` (racemic) [compound 15, (+/−)-2-(cyclohexylmethyl)-N-[2-(1-methylpyrrolidin-2-yl)ethyl]-1,2,3,4-tetrahydroisoquinoline-7-sulfonamide], the Ki stood at 0.3 nM.

Test system in the next series: not given
Test: not given
Details: not given
In turn, `O=S(=O)(NCCCN1CCCC1)c1ccc2c(c1)CN(CC1CCCCC1)CC2` (as salt: oxalate) [compound 21, 2-(cyclohexylmethyl)-N-(3-pyrrolidin-1-ylpropyl)-1,2,3,4-tetrahydroisoquinoline-7-sulfonamide] came in with a melting point of 130 to 141 °C.
Consider `CN1CCc2ccc(S(=O)(=O)NCCCN3CC=CC3)cc2C1` (as salt: oxalate) [compound 16, N-[3-(2,5-dihydro-1H-pyrrol-1-yl)propyl]-2-methyl-1,2,3,4-tetrahydroisoquinoline-7-sulfonamide], for which the melting point was 99 to 104 °C.
Molecule `CCN(CC)CCCNS(=O)(=O)c1ccc2c(c1)CN(CC1CC1)CC2` (as salt: oxalate) [compound 6, 2-(cyclopropylmethyl)-N-[3-(diethylamino)propyl]-1,2,3,4-tetrahydroisoquinoline-7-sulfonamide] had a melting point of 98 to 103 °C.
Consider `CN1CCCC1CCNS(=O)(=O)c1ccc2c(c1)CN(CC1CC1)CC2` (racemic) (as salt: oxalate) [compound 22, (+/−)-2-(cyclopropylmethyl)-N-[2-(1-methylpyrrolidin-2-yl)ethyl]-1,2,3,4-tetrahydroisoquinoline-7-sulfonamide], for which the melting point was 50 to 60 °C.
Same read-out and setting: the result for `O=S(=O)(NCCCN1CC=CCC1)c1ccc2c(c1)CNCC2` (as salt: hydrochloride) [compound 9, N-[3-(3,6-dihydropyridin-1(2H)-yl)propyl]-1,2,3,4-tetrahydroisoquinoline-7-sulfonamide] reads more than 250 °C; that for `COc1ccc(OC)c(CN2CCc3ccc(S(=O)(=O)NCCC4CCCN4C)cc3C2)c1` (racemic) (as salt: oxalate) [compound 31, (+/−)-2-(2,5-dimethoxybenzyl)-N-[2-(1-methylpyrrolidin-2-yl)ethyl]-1,2,3,4-tetrahydroisoquinoline-7-sulfonamide], 87 to 90 °C; that for `O=S(=O)(NCCCN1CCCC1)c1ccc2c(c1)CNCC2` (as salt: hydrochloride) [compound 18, N-(3-pyrrolidin-1-ylpropyl)-1,2,3,4-tetrahydroisoquinoline-7-sulfonamide], 237 to 241 °C.
Molecule `O=S(=O)(NCCCN1CCN(Cc2ccccc2)CC1)c1ccc2c(c1)CNCC2` (as salt: hydrochloride) [compound 17, N-[3-(4-benzylpiperazin-1-yl)propyl]-1,2,3,4-tetrahydroisoquinoline-7-sulfonamide] registered a melting point of 244 to 249 °C.
For `CN1CCCC1CCNS(=O)(=O)c1ccc2c(c1)CN(Cc1ccc(Br)cc1)CC2` (racemic) (as salt: oxalate) [compound 30, (+/−)-2-(4-bromobenzyl)-N-[2-(1-methylpyrrolidin-2-yl)ethyl]-1,2,3,4-tetrahydroisoquinoline-7-sulfonamide], the melting point is 86 to 110 °C.
Same read-out and setting: the result for `CCN(CC)CCCNS(=O)(=O)c1ccc2c(c1)CN(CC1CCCCC1)CC2` (as salt: oxalate) [compound 7, 2-(cyclohexylmethyl)-N-[3-(diethylamino)propyl]-1,2,3,4-tetrahydroisoquinoline-7-sulfonamide] reads 144 to 147 °C; that for `CCN(CC)CCCNS(=O)(=O)c1ccc2c(c1)CN(Cc1cccs1)CC2` (as salt: oxalate) [compound 11, N-[3-(diethylamino)propyl]-2-(2-thienylmethyl)-1,2,3,4-tetrahydroisoquinoline-7-sulfonamide], 109 to 115 °C; that for `CN1CCCC1CCNS(=O)(=O)c1ccc2c(c1)CN(Cc1ccccc1)CC2` (racemic) (as salt: oxalate) [compound 23, (+/−)-2-benzyl-N-[2-(1-methylpyrrolidin-2-yl)ethyl]-1,2,3,4-tetrahydroisoquinoline-7-sulfonamide], 77 to 82 °C.
The same measure, in the same setting: with `CCN(CC)CCCNS(=O)(=O)c1ccc2c(c1)CN(C1CCCCC1)CC2` (as salt: oxalate) [compound 14, 2-cyclohexyl-N-[3-(diethylamino)propyl]-1,2,3,4-tetrahydroisoquinoline-7-sulfonamide] the figure was 55 to 60 °C.
Same read-out and setting: with `CCN(CC)CCCNS(=O)(=O)c1ccc2c(c1)CN(Cc1ccccc1)CC2` (as salt: oxalate) [compound 5, 2-benzyl-N-[3-(diethylamino)propyl]-1,2,3,4-tetrahydroisoquinoline-7-sulfonamide] the figure was 91 to 95 °C; with `CCC(C)CN1CCc2ccc(S(=O)(=O)NCCC3CCCN3C)cc2C1` (racemic) (as salt: oxalate) [compound 32, (+/−)-2-(2-methylbutyl)-N-[2-(1-methylpyrrolidin-2-yl)ethyl]-1,2,3,4-tetrahydroisoquinoline-7-sulfonamide], 66 to 77 °C; with `O=S(=O)(NCCCN1CC=CC1)c1ccc2c(c1)CNCC2` (as salt: hydrochloride) [compound 13, N-[3-(2,5-dihydro-1H-pyrrol-1-yl)propyl]-1,2,3,4-tetrahydroisoquinoline-7-sulfonamide], 228 to 231 °C.
Turning to `CC(C)c1ccc(CN2CCc3ccc(S(=O)(=O)NCCC4CCCN4C)cc3C2)cc1` (racemic) (as salt: oxalate) [compound 24, (+/−)-2-(4-isopropylbenzyl)-N-[2-(1-methylpyrrolidin-2-yl)ethyl]-1,2,3,4-tetrahydroisoquinoline-7-sulfonamide], the melting point was 103 to 110 °C.
Still for that read-out and setting: the result for `CN(C)CCCNS(=O)(=O)c1ccc2c(c1)CNCC2` (as salt: hydrochloride) reads 230 to 234 °C; that for `CCN(CC)CCCNS(=O)(=O)c1ccc2c(c1)CN(C(C)C)CC2` (as salt: oxalate) [compound 10, N-[3-(diethylamino)propyl]-2-isopropyl-1,2,3,4-tetrahydroisoquinoline-7-sulfonamide], 54 to 59 °C; that for `CC1CCCCN1CCCNS(=O)(=O)c1ccc2c(c1)CNCC2` (racemic) (as salt: hydrochloride), 65 to 70 °C.
Same read-out and setting: with `CCN(CC)CCCNS(=O)(=O)c1ccc2c(c1)CN(Cc1ccsc1)CC2` (as salt: oxalate) [compound 12, N-[3-(diethylamino)propyl]-2-(3-thienylmethyl)-1,2,3,4-tetrahydroisoquinoline-7-sulfonamide] the figure was 89 to 95 °C; with `COc1cccc(CN2CCc3ccc(S(=O)(=O)NCCC4CCCN4C)cc3C2)c1` (racemic) (as salt: oxalate) [compound 33, (+/−)-2-(3-methoxybenzyl)-N-[2-(1-methylpyrrolidin-2-yl)ethyl]-1,2,3,4-tetrahydroisoquinoline-7-sulfonamide], 80 to 107 °C.
Molecule `O=S(=O)(NCCCN1CCOCC1)c1ccc2c(c1)CNCC2` (as salt: hydrochloride) [compound 19, N-(3-morpholin-4-ylpropyl)-1,2,3,4-tetrahydroisoquinoline-7-sulfonamide] gave a melting point of 238 to 245 °C.
The same measure, in the same setting: with `Cc1cc(C)cc(CN2CCc3ccc(S(=O)(=O)NCCC4CCCN4C)cc3C2)c1` (racemic) (as salt: oxalate) [compound 34, (+/−)-2-(3,5-dimethyl-benzyl)-N-[2-(1-methylpyrrolidin-2-yl)ethyl]-1,2,3,4-tetrahydroisoquinoline-7-sulfonamide] the figure was 121 to 125 °C; with `CN1CCCC1CCNS(=O)(=O)c1ccc2c(c1)CN(Cc1ccc3c(c1)OCO3)CC2` (racemic) (as salt: oxalate) [compound 25, (+/−)-2-(1,3-benzodioxol-5-ylmethyl)-N-[2-(1-methylpyrrolidin-2-yl)ethyl]-1,2,3,4-tetrahydroisoquinoline-7-sulfonamide], 106 to 109 °C.

In another series the test system is food intake. The series is described as follows: food intake in rats fasting for 24 h. The class given is in vivo, Wistar rats. The note with it: 10 mg/kg i.p., during the first hour after administration, rats fasted 24 h. The procedure:
Furthermore, the compounds of the invention of formula I were subjected to in vivo tests showing their ability to reduce food intake in rats fasting for 24 h.
The experiments were carried out on Wistar rats. The rats were placed individually in transparent plastic cages 48×26, 5×21.5 cm. These cages were placed in a room insulated against any noise, at a temperature of 20 to 22° C., with a light cycle from 7 o'clock in the morning to 7 o'clock in the evening, the rats having free access to water and to the food.
Before the experiment was carried out, the rats were made to fast for 24 h, with access, however, to water ad libitum. On the day of the experiment, the carrier or the compound according to the present invention was administered i.p. or p.o., 15 or 30 minutes before a known amount of food (30 g) was made available.
Each hour, for 6 hours, the amount of food ingested by the rat was measured.
For the molecule `CC(C)c1ccc(CN2CCc3ccc(S(=O)(=O)NCCC4CCCN4C)cc3C2)cc1` (racemic) [compound 24, (+/−)-2-(4-isopropylbenzyl)-N-[2-(1-methylpyrrolidin-2-yl)ethyl]-1,2,3,4-tetrahydroisoquinoline-7-sulfonamide], the “decrease of food intake” value was 54%.

What is called IC50 is the concentration that inhibits the measured activity by half. Read a high IC50 as lower potency. A word on the Ki: it is the equilibrium dissociation constant of an inhibitor or competing ligand from its target. What is called melting point is the temperature, or range, at which the solid turns liquid.
